Data published in article PMC11844072, “Novel 5,6-dichlorobenzimidazole derivatives as dual BRAFWT and BRAFV600E inhibitors: design, synthesis, anti-cancer activity and molecular dynamics simulations” (BMC Chemistry, 2025).

Legend:
BRAFWT = biological target: T1, BRAFWT (Homo sapiens, UniProt P15056); conditions: cited from earlier work
T1 construct: purchased BPS Biosciences 78316

PDGFR-β = test system: PDGFR-β; parameters: method as in PMID 35636123; conditions: cited from earlier work
FLT-3 = test system: FLT-3; parameters: method as in PMID 35636123; conditions: cited from earlier work
BRAFV600E = BRAFV600E (Homo sapiens, UniProt P15056, V600E); parameters: purchased BPS Biosciences 48688; conditions: cited from earlier work
Chain of BRAFV600E (P15056 whole entry V600E): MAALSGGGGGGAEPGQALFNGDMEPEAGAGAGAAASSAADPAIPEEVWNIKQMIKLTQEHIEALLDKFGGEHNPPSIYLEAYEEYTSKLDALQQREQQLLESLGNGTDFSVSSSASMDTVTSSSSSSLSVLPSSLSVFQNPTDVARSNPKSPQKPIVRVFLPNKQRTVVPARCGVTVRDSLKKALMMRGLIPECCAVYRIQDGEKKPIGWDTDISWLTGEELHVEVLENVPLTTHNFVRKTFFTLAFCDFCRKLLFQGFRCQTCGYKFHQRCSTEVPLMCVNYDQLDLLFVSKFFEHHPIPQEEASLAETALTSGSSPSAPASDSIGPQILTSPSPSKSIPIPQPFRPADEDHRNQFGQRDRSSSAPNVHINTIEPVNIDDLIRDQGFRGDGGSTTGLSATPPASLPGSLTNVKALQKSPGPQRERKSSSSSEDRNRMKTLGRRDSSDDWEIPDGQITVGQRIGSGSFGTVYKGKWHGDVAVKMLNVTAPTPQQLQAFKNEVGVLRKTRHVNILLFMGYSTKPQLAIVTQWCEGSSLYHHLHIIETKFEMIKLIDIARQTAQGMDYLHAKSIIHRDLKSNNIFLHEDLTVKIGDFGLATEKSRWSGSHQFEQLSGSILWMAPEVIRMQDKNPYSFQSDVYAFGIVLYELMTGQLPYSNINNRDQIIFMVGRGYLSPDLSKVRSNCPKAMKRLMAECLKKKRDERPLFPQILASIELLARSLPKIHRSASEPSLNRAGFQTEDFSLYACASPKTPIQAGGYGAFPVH

c-KIT = test system: c-KIT; parameters: method as in PMID 35636123; conditions: cited from earlier work
VEGFR-2 = VEGFR-2 (Homo sapiens, UniProt P35968); parameters: purchased; conditions: cited from earlier work
Chain of VEGFR-2 (P35968 20-1356): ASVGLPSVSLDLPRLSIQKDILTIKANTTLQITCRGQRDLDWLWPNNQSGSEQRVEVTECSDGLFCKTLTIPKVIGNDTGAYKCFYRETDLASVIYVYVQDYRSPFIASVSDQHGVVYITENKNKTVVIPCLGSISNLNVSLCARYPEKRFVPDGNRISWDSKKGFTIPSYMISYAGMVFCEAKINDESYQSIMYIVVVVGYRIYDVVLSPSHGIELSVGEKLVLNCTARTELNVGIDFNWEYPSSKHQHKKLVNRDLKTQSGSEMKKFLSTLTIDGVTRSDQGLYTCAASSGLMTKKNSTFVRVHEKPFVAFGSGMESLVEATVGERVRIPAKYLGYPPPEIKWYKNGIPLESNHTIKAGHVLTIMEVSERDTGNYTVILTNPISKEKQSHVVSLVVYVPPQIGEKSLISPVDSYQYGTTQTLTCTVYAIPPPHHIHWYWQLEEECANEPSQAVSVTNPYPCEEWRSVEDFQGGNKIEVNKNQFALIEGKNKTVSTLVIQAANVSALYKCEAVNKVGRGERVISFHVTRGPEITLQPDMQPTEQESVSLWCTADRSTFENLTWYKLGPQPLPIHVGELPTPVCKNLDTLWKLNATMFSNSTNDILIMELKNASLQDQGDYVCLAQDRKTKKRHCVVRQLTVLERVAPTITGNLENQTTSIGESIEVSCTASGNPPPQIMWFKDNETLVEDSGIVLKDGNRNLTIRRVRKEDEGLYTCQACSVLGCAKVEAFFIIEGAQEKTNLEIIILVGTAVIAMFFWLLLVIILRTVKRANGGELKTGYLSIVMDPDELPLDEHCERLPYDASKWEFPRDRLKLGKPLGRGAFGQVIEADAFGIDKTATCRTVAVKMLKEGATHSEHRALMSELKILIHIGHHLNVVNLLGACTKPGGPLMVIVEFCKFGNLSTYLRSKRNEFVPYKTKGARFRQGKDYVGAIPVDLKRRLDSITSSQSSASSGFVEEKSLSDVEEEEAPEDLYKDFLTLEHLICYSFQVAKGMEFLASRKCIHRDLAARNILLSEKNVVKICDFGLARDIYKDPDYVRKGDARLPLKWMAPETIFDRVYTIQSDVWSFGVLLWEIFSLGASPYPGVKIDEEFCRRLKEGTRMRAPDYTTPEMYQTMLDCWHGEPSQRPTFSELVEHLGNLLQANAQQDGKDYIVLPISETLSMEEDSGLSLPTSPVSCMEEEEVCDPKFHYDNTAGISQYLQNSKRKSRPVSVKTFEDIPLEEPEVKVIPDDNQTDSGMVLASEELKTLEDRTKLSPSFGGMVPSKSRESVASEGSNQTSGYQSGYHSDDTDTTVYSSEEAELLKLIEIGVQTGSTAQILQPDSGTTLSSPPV

FGFR-1 = FGFR-1 (Homo sapiens, UniProt P11362); parameters: purchased; conditions: cited from earlier work
Chain of FGFR-1 (P11362 22-822): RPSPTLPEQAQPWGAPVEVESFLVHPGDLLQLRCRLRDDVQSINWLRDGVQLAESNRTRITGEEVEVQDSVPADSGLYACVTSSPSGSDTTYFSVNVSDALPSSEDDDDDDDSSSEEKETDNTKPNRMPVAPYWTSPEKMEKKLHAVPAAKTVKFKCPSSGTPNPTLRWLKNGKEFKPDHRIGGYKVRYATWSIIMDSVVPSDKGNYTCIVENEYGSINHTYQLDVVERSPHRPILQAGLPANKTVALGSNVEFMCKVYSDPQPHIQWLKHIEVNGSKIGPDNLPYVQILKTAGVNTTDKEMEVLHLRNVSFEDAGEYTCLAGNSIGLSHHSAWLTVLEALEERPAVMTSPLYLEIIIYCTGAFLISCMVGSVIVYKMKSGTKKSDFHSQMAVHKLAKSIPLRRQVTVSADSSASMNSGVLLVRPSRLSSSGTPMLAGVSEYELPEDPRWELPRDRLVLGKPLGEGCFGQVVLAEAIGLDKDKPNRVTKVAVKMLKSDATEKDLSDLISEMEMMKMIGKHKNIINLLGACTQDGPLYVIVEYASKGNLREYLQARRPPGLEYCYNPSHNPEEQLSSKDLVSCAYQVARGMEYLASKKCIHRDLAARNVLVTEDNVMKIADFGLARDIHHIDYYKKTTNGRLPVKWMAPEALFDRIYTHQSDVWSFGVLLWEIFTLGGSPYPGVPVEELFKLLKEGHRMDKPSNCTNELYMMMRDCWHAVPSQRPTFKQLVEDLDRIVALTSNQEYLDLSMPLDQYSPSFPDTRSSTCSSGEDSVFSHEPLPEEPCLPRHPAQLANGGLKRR

HSF cell line = assay: Cytotoxicity on HSF normal cell line (SRB assay); type: cell-based; conditions: HSF normal human skin fibroblast; mean of three ± SD
Experimental: The dichlorobenzimidazole derivative 10h was tested in Nawah scientific—Cairo—Egypt for its cytotoxic activity on HSF cell line as stated in the Additional file A [53, 54].
6. Analysis of 10h on HSF normal cell line
Human Skin Fibroblast (HSF) was obtained from Nawah Scientific Inc., (Mokatam, Cairo, Egypt). Cells were maintained in DMEM media supplemented with […] of streptomycin, 100 units/mL of penicillin and 10% of heat-inactivated fetal bovine serum in humidified, 5% (v/v) CO2atmosphere at 37 °C. Cell viability was assessed by SRB assay. Aliquots of 100 μL cell suspension (5x10^3 cells) were in 96-well plates and incubated in complete media for 24 h. Cells were treated with another aliquot of 100 μL media containing drugs at various concentrations.
After drug exposure, cells were fixed by replacing media with 150 μL of 10% TCA and incubated at 4 °C for 1 h. The TCA solution was removed, and the cells were washed 5 times with distilled water. Aliquots of 70 μL SRB solution (0.4% w/v) were added and incubated in a dark place at room temperature for 10 min. Plates were washed 3 times with 1% acetic acid and allowed to air-dry overnight. Then, 150 μL of TRIS (10 mM) was added to dissolve protein-bound SRB stain; the absorbance was measured at 540 nm using an Infinite F50 microplate reader (TECAN, Switzerland).
6.2. Dose response curve of 10h on HSF normal cell line
Figure 66. […]

HepG2 cell line = test system: HepG2 cell line; parameters: method as in PMID 28505536, PMID 32053964; conditions: antiproliferative activity; cited from earlier work

T1 sequence (P15056 whole entry): as the sequence (P15056 whole entry V600E) above, with E600V counted along it

Q: Which results are given for `Cc1ccc(-n2c(SCC(=O)Nc3ccc(-c4nc5ccccc5[nH]4)cc3)nc3ccccc3c2=O)cc1` [III]?
A: IC50 (BRAFWT): 6740 nM; IC50 (PDGFR-β): 30 nM; IC50 (FLT-3): 130 nM; IC50 (BRAFV600E): 2470 nM; IC50 (c-KIT): 120 nM

Q: With `O=C1Nc2ccc(Br)cc2/C1=N\NC(=O)c1ccc2[nH]c(-c3ccccc3)nc2c1` [IV] as the compound, how does the IC50 (BRAFWT) read?
A: The IC50 was 20 nM.

Q: And the IC50 (VEGFR-2)?
A: The IC50 was 180 nM.

Q: And the IC50 (BRAFV600E)?
A: The IC50 was 1520 nM.

Q: What about the IC50 (FGFR-1) of the same compound?
A: Its IC50 is 1650 nM.

Q: With `CNC(=O)c1cc(Oc2ccc(NC(=O)Nc3ccc(Cl)c(C(F)(F)F)c3)cc2)ccn1` [Sorafenib, reference compound] as the compound, how does the IC50 (HSF cell line) read?
A: The IC50 was 2250 ± 140 nM.

Q: Which IC50 (HepG2 cell line) does the source give for `CC(C)c1nc2ccccc2n1CC(=O)N/N=C/c1cccc(OCc2ccccc2)c1` [V] here?
A: Its IC50 is 1980 nM.
